Measurements: ChEMBL document CHEMBL1124361, “Tetrapeptide inhibitors of the IgA1 proteinases from type I Neisseria gonorrhoeae” (J Med Chem, 1989)
Peptide text beside a SMILES is read from it.

Target: IgA-specific serine endopeptidase autotransporter (Neisseria gonorrhoeae, UniProt P09790)
Assay: Inhibitory concentration against type 1 IgA1 proteinases secreted by Neisseria gonorrhoeae

Chain of IgA-specific serine endopeptidase autotransporter (P09790 whole entry): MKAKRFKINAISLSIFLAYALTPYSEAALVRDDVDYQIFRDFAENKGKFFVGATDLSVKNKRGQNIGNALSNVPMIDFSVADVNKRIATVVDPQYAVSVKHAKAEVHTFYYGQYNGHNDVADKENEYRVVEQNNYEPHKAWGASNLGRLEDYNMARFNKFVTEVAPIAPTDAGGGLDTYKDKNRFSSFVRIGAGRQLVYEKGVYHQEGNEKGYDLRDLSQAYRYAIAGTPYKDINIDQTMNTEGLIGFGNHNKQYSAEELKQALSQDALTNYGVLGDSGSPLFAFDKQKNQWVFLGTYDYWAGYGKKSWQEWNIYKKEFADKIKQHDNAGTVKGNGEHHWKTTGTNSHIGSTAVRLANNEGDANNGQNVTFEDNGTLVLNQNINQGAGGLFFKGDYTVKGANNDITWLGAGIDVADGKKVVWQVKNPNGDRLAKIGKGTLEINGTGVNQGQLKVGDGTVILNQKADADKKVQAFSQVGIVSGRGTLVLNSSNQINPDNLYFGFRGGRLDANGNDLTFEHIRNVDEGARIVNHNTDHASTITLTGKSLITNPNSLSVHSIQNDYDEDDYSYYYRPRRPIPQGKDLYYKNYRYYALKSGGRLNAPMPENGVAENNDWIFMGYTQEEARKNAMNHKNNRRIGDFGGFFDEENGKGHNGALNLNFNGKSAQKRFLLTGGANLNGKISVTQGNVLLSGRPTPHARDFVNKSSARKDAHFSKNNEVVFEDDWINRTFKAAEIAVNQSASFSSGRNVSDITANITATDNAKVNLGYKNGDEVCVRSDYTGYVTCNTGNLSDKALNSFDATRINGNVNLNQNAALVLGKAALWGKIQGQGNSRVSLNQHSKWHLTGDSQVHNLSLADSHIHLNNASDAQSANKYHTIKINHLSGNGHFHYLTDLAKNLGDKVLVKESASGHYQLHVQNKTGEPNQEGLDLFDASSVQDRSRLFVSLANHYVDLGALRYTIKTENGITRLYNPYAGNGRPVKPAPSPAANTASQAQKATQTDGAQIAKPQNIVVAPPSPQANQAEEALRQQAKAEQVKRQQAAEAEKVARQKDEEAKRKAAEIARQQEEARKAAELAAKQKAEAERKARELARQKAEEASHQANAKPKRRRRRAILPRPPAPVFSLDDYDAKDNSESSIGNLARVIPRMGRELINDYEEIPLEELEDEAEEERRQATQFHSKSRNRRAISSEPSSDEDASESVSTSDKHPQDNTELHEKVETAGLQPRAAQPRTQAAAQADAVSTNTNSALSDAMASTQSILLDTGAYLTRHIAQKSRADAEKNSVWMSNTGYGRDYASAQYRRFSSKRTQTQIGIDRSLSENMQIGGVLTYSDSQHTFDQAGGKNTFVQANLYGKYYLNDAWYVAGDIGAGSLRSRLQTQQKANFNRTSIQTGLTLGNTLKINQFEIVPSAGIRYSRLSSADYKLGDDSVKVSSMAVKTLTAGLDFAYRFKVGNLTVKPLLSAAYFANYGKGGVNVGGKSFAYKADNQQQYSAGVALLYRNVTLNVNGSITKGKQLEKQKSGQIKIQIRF

| Structure (SMILES) | IC50 |
| --- | --- |
| CC(=O)N1CCC[C@H]1C(=O)N1CCC[C@H]1C(=O)N[C@H](C(=O)N1CCC[C@H]1C(=O)O)[C@@H](C)O (Ac-PPTP-OH) | > 1000 µM |
| CC(=O)N1CCC[C@H]1C(=O)N[C@@H](CO)C(=O)N1CCC[C@H]1C(=O)N[C@@H](CO)C(=O)O (Ac-PSPS-OH) | 675 µM |
| CC(=O)N1CCC[C@H]1C(=O)N[C@H](C(=O)N1CCC[C@H]1C(=O)N[C@@H](CO)C(=O)O)[C@@H](C)O (Ac-PTPS-OH) | 23.8 µM |
| CC(=O)N[C@@H](CO)C(=O)N[C@H](C(=O)N1CCC[C@H]1C(=O)N1CCC[C@H]1C(N)=O)[C@@H](C)O (Ac-STPP-NH2) | > 1000 µM |
| CC(=O)N[C@@H](CO)C(=O)N[C@H](C(=O)N1CCC[C@H]1C(=O)N1CCC[C@H]1C(=O)O)[C@@H](C)O (Ac-STPP-OH) | 9.7 µM |
| CC(=O)N[C@H](C(=O)N1CCC[C@H]1C(=O)N1CCC[C@H]1C(=O)N[C@H](C(N)=O)[C@@H](C)O)[C@@H](C)O (Ac-TPPT-NH2) | > 1000 µM |
| CC(=O)N[C@H](C(=O)N1CCC[C@H]1C(=O)N1CCC[C@H]1C(=O)N[C@H](C(=O)O)[C@@H](C)O)[C@@H](C)O (Ac-TPPT-OH) | > 1000 µM |
| CC(=O)N[C@H](C(=O)N1CCC[C@H]1C(=O)N[C@@H](CO)C(=O)N1CCC[C@H]1C(=O)O)[C@@H](C)O (Ac-TPSP-OH) | 183 µM |
| C[C@@H](O)[C@H](NC(=O)[C@@H]1CCCN1C(=O)[C@@H]1CCCN1)C(=O)N1CCC[C@H]1C(=O)O (H-PPTP-OH) | 40.5 µM |
| NC(=O)[C@H](CO)NC(=O)[C@@H]1CCCN1C(=O)[C@H](CO)NC(=O)[C@@H]1CCCN1 (H-PSPS-NH2) | > 1000 µM |
| O=C(O)[C@H](CO)NC(=O)[C@@H]1CCCN1C(=O)[C@H](CO)NC(=O)[C@@H]1CCCN1 (H-PSPS-OH) | > 1000 µM |
| C[C@@H](O)[C@H](NC(=O)[C@@H]1CCCN1)C(=O)N1CCC[C@H]1C(=O)N[C@@H](CO)C(N)=O (H-PTPS-NH2) | 5.3 µM |
| C[C@@H](O)[C@H](NC(=O)[C@@H]1CCCN1)C(=O)N1CCC[C@H]1C(=O)N[C@@H](CO)C(=O)O (H-PTPS-OH) | > 1000 µM |
| C[C@@H](O)[C@H](NC(=O)[C@@H](N)CO)C(=O)N1CCC[C@H]1C(=O)N1CCC[C@H]1C(N)=O (H-STPP-NH2) | > 1000 µM |
| C[C@@H](O)[C@H](NC(=O)[C@@H](N)CO)C(=O)N1CCC[C@H]1C(=O)N1CCC[C@H]1C(=O)O (H-STPP-OH) | 73 µM |
| C[C@@H](O)[C@H](N)C(=O)N1CCC[C@H]1C(=O)N1CCC[C@H]1C(=O)N[C@H](C(N)=O)[C@@H](C)O (H-TPPT-NH2) | 419 µM |
| C[C@@H](O)[C@H](N)C(=O)N1CCC[C@H]1C(=O)N1CCC[C@H]1C(=O)N[C@H](C(=O)O)[C@@H](C)O (H-TPPT-OH) | > 1000 µM |
| C[C@@H](O)[C@H](N)C(=O)N1CCC[C@H]1C(=O)N[C@@H](CO)C(=O)N1CCC[C@H]1C(=O)O (H-TPSP-OH) | 33.1 µM |
| CC(=O)N1CCC[C@H]1C(=O)N1CCC[C@H]1C(=O)N[C@H](C(=O)N1CCC[C@H]1C(N)=O)[C@@H](C)O [ACETYLPROLYLPROLYLTHREONYLPROLINAMIDE(ACPPTPNH2)] (Ac-PPTP-NH2) | > 1000 µM |
| CC(=O)N1CCC[C@H]1C(=O)N[C@@H](CO)C(=O)N1CCC[C@H]1C(=O)N[C@@H](CO)C(N)=O [ACETYLPROLYLSERYLPROLYLSERINAMIDE(ACPSPSNH2)] (Ac-PSPS-NH2) | > 1000 µM |
| CC(=O)N1CCC[C@H]1C(=O)N[C@H](C(=O)N1CCC[C@H]1C(=O)N[C@@H](CO)C(N)=O)[C@@H](C)O [ACETYLPROLYLTHREONYLPROLYLSERINAMIDE(ACPTPSNH2)] (Ac-PTPS-NH2) | > 1000 µM |
| CC(=O)N[C@H](C(=O)N1CCC[C@H]1C(=O)N[C@@H](CO)C(=O)N1CCC[C@H]1C(N)=O)[C@@H](C)O [ACETYLTHREONYLPROLYLSERYLPROLINAMIDE(ACTPSPNH2)] (Ac-TPSP-NH2) | > 1000 µM |
| C[C@@H](O)[C@H](NC(=O)[C@@H]1CCCN1C(=O)[C@@H]1CCCN1)C(=O)N1CCC[C@H]1C(N)=O [PROLYLPROLYLTHREONYLPROLINAMIDE(PPTPNH2)] (H-PPTP-NH2) | > 1000 µM |
| C[C@@H](O)[C@H](N)C(=O)N1CCC[C@H]1C(=O)N[C@@H](CO)C(=O)N1CCC[C@H]1C(N)=O [THREONYLPROLYLSERYLPROLINAMIDE(TPSPNH2)] (H-TPSP-NH2) | > 1000 µM |
